{
  "source": "patent US20250121000A1",
  "about": "“INHALABLE BICARBONATE COMPOSITIONS AND DELIVERY SYSTEMS THEREFOR” (Nebulize Performance Inc., priority 2023, published 2025)",
  "key": {"[1]": {"conditions": "upwards of / over 20 grams, literature studies, cited from earlier work"}, "[2]": {"conditions": "for gastrointestinal discomfort or side effects / self-reported breathing difficulties (chest tightness, shortness of breath, respiratory difficulty) and nausea: inhaled nebulized 3.5% sodium bicarbonate; for self-reported breathing difficulties (chest tightness, shortness of breath, respiratory difficulty) and nausea: all participants", "procedure": "A randomized, single-blinded, crossover design was used. Participants completed a repeated sprint exercise protocol to total exhaustion in an indoor facility after inhaling 20 mL of a 3.5% sodium bicarbonate solution (700 mg) dissolved in water or a placebo (pure water) prior to the sprint test. Participants inhaled the solutions through a commercially available nebulizer (Pari Vios Nebulizer System™) for 30 min while seated at rest over 5 bouts of 6 min (4 mL/bout) prior to completing the first sprint set and were required to breathe the same solution for 60 seconds in between each set (described below).\nThe order of placebo or bicarbonate was assigned with a numbering system of 1 and 2 respectively, where half of the participants were randomly assigned a 1-2 vs 2-1 order with each trial separated by one week. Following the last trial, participants were asked to guess the order of trials. […] Participants were also asked to describe any noticeably breathing difficulties including chest tightness, shortness of breath or any sign of respiratory difficulty, as well as nausea."}, "[3]": {"conditions": "inhaled 3.5% sodium bicarbonate, sets 1-4, p<0.05"}, "[4]": {"conditions": "participants that completed more than 4 sprint sets, non-significant trend"}},
  "note": "Like-named read-outs stand apart in the source and are kept apart here.",
  "data": [
    {"smiles": "O=C([O-])O.[Na+]", "note": "[sodium bicarbonate]", "values": [
      {"measurement": "faster sprint times after oral ingestion", "setting": "[1]; listed as bicarbonate", "result": "≤ 5", "unit": "%"},
      {"measurement": "faster sprint times after oral ingestion", "setting": "[1]", "result": "< 5", "unit": "%"},
      {"measurement": "average improvement in sprint time vs placebo, first half of each set (shuttle sprints 1-3)", "setting": "[2]; [3]", "result": 3.5, "unit": "%"},
      {"measurement": "improvement in average sprint time vs placebo, sprints 4-6 of each set", "setting": "[2]; [3]", "result": 4.5, "unit": "%"},
      {"measurement": "decrease in average sprint time vs placebo, overall (sprints 1-6 of each set)", "setting": "[2]; inhaled 20 mL of 3.5% sodium bicarbonate solution (700 mg) by nebulizer plus 60 s between sets, 4 sets of 6x40 m sprints, p<0.05", "result": 4.1, "unit": "%"},
      {"measurement": "gastrointestinal discomfort or side effects", "setting": "[2]", "result": "no participants experienced any symptoms of gastrointestinal discomfort or side effects"},
      {"measurement": "self-reported breathing difficulties (chest tightness, shortness of breath, respiratory difficulty) and nausea", "setting": "[2]", "result": "free of any such distress"},
      {"measurement": "self-reported breathing difficulties (chest tightness, shortness of breath, respiratory difficulty) and nausea", "setting": "[2]; listed as nebulized bicarbonate", "result": "free of respiratory distress"},
      {"measurement": "gastrointestinal discomfort or side effects", "setting": "[2]; listed as Nebulized bicarbonate", "result": "without detrimental side effects"},
      {"measurement": "improvement in performance (faster time) in sprint set 5", "setting": "[2]; [4]", "result": 5, "unit": "%"},
      {"measurement": "improvement in performance (faster time) in sprint set 6", "setting": "[2]; [4]", "result": 7, "unit": "%"}
    ]}
  ]
}
